These results are taken from patent US20260275323A1, “FULLY GENETICALLY ENCODED NAD+PROTEIN PROBE BASED ON RESONANCE ENERGY TRANSFER,AND PREPARATION METHOD THEREFOR AND USE THEREOF” (SHENZHEN INSTITUTES OF ADVANCED TECHNOLOGY, priority 2021, published 2026).

Structures are written as SMILES.

The subject of assay [1] is NAD+ molecular probe NAD1.2. Description: Response of NAD+ molecular probe to different NAD+ analogs (590/440 ratio titration). In kind it is biochemical. As to conditions: FIG. 4. As to the method: (2) Add 80 μL of probe solution, 10 μL of NAD+ solution or 10 μL of NAD+ analogs solution, and 10 μL of bioluminescent substrate solution into the white 96-well elisa plate, blowing, suction, and mix immediately several times (at least 8 times) with multi-channel pipette; use Flex Station3 multifunctional microplate reader to read the light intensity values at the wavelengths of 440 nm and 590 nm under the luminescence mode, and monitor the values for 5 min continuously, and the average receptor-to-donor luminescence ratio is calculated for this time period.

Assay [2] deals with T1, NAD+ probe NADS1.2 (mScarlet mutant-LigA mutant-cpNluc mutant fusion), SEQ ID NO. 7; LigA mutant 1 (DNA ligase LigA mutant), SEQ ID NO. 3 (Enterococcus faecalis, UniProt Q837V6, D286N/K120L/R163D/R68N).
T1 construct: purified BRET probe NADS1.2
T1 sequence (Q837V6 6-317 R68N/K120L/R163D/D286N): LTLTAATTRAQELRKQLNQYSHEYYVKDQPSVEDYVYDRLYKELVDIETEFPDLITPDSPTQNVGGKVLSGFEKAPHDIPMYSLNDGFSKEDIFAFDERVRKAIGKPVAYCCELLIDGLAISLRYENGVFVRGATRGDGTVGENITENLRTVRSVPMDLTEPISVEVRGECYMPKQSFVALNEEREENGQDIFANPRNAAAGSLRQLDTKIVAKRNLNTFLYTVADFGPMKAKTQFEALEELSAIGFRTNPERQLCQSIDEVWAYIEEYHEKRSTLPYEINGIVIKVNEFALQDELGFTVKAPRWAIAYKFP
Description: Response of NAD+ molecular probe NADS1.2 to NAD+ and different NAD+ analogs. In kind it is binding. As to conditions: for dynamic range of probe response / response of probe: NADS1.2, NAD+ analogs, 590/440 nm ratio; for dynamic range of probe response: in words.

Assay [3] concerns HEK293 stably transfected cell line. Description: Intracellular NAD+ change in HEK293 cell line stably expressing probe NADS1.0 (590/440 emitted light ratio). It counts as cell-based. As to conditions: final concentration 10 nM, 24 h treatment. The method, then: The NAD+ molecular probe provided by the invention can detect changes in the concentration of NAD+ molecules in cells. The coding gene of this probe (NADS1.0) is cloned into the pCDH-CMV-MCS-EF1-Neo vector, and the HEK293 stably transfected cell line is prepared using lentiviral method. […] After 24 h of treatment with the compounds, the DMEM medium (high sugar, phenol red free) is changed to fresh DMEM medium (high sugar, phenol red free, bioluminescent substrate diluted by 1,000-fold) with bioluminescent substrate. The emitted light intensity at 590 nm and 440 nm is measured using Flex Station3 multifunctional microplate reader. According to the detection principle of the probe, the ratio of emitted light intensity at 590 nm and 440 nm indicates the NAD+ concentration in living cells. It is found in the detection that the ratio decreased in cells treated with FK866, indicating a decrease in intracellular NAD+ concentration, while in the NRH-treated cells, the ratio increased, indicating an increase in intracellular NAD+ concentration.

The target of assay [4] is T2, NAD+ probe NADS2.0 (mNeoGreen mutant-LigA mutant-cpNluc mutant fusion), SEQ ID NO. 9; LigA mutant SEQ ID NO. 3 (Enterococcus faecalis, UniProt Q837V6, D286N/K120L/R163D/R68N).
T2 construct: purified BRET probe NADS2.0
T2 sequence (Q837V6 6-317 R68N/K120L/R163D/D286N): as above
Description: NAD+ titration of purified BRET probe NADS2.0. As to conditions: 515/440 nm light intensity ratio. It counts as binding. The text has this:
The sequence of NADS^2.0 is shown as SEQ ID NO. 9
mNeoGreen mutant-LigA mutant-cpNluc mutant
The sequence of LigA1 mutant is shown as SEQ ID NO.
(In general: BRET reads energy transfer from a luciferase to a nearby fluorophore.)

Assay [5] has as its target T3, NAD+ probe NADS3.0 (mScarlet mutant-LigA mutant-mNeoGreen mutant fusion), SEQ ID NO. 11; LigA mutant 1 SEQ ID NO. 3 (Enterococcus faecalis, UniProt Q837V6, D286N/K120L/R163D/R68N).
T3 construct: purified FRET probe NADS3.0
Description: NAD+ titration of purified FRET probe NADS3.0. In kind it is binding. As to conditions: 585/515 nm ratio, excitation 470 nm. The text has this: The sequence of NADS3.0 is shown as SEQ ID NO. 11
mScarlet mutant-LigA mutant-mNeoGreen mutant
The sequence of LigA mutant 1 is shown as SEQ ID NO.

Broadly, the EC50 is the concentration at which the effect is half-maximal. Low values mean greater potency, high ones weaker potency.

T3 sequence (Q837V6 6-317 R68N/K120L/R163D/D286N): as above

Regarding `NC(=O)c1ccc[n+]([C@@H]2O[C@H](COP(=O)([O-])O)[C@@H](O)[C@H]2O)c1` [NMN], the “dynamic range of the probe response to the analog” value in assay [1] is “small”. For the same compound, the “dynamic range of probe response” value in assay [2] is listed as “small dynamic range”.

Turning to `NC(=O)c1ccc[n+]([C@@H]2O[C@H](COP(=O)([O-])OP(=O)(O)OC[C@H]3O[C@@H](n4cnc5c(N)ncnc54)[C@H](OP(=O)(O)O)[C@@H]3O)[C@@H](O)[C@H]2O)c1` [NADP+], the “dynamic range of the probe response to the analog” value in assay [1] is “small”. Besides, the “dynamic range of probe response” value in assay [2] is “small dynamic range”.

For `O=C(/C=C/c1cccnc1)NCCCCC1CCN(C(=O)c2ccccc2)CC1` [FK866], the “ratio of emitted light intensity at 590 nm and 440 nm (indicates intracellular NAD+ concentration)” value in assay [3] is “decreased”.

Consider `NC(=O)C1=CN([C@@H]2O[C@H](COP(=O)(O)OP(=O)(O)OC[C@H]3O[C@@H](n4cnc5c(N)ncnc54)[C@H](O)[C@@H]3O)[C@@H](O)[C@H]2O)C=CC1` [NADH], for which the EC50 in assay [2] was above 1000 µM.

In the case of `NC(=O)c1ccc[n+]([C@@H]2O[C@H](COP(=O)([O-])OP(=O)(O)OC[C@H]3O[C@@H](n4cnc5c(N)ncnc54)[C@H](O)[C@@H]3O)[C@@H](O)[C@H]2O)c1` [NAD+], the dynamic range in assay [4] is 1.8 fold; in assay [5] it was 1.21 fold.

In the case of `NC(=O)c1cccnc1` [NAM], the response of probe result in assay [2] is on record as “did not respond”.

Take `NC(=O)C1=CN([C@@H]2O[C@H](COP(=O)(O)OP(=O)(O)OC[C@H]3O[C@@H](n4cnc5c(N)ncnc54)[C@H](OP(=O)(O)O)[C@@H]3O)[C@@H](O)[C@H]2O)C=CC1` [NADPH]: the response of probe entry in assay [2] is given as “did not respond”.
